Data reported in PubChem BioAssay AID1919007 (Molecular Pharmacology Branch, DTP, NCI, 2023).

Tested on: A498 complex spheroids with HUVEC/MSC, growth
Test: Anticancer human tumor A498 cell line growth inhibition [AhR];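 further: seven day exposure starting three days after spheroid seeding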;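 on viability, T/C: luminescence signal used as a surrogate for viable cells; luminescence viability scaled so 100% equals DMSO vehicle wells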
Conditions: for IC50: curve of first compound; for viability, T/C: stronger effect = lower value
From the text: Multicellular complex tumor spheroid response to aryl hydrocarbon receptor antagonists in combination with a variety of drugs and investigational agents in selected tumor cell lines
The current study was undertaken to assess response to aryl hydrocarbon receptor antagonists in combination with standard-of-care drugs and investigational agents in solid tumor complex spheroid models. Complex spheroids include a stromal component modeled by human endothelial cells (HUVEC) and fibroblasts modeled by human mesenchymal stem cells (MSCs). The concentration ranges selected for each drug and investigational agent were based upon clinically achievable concentrations if the clinical Cmax of the agent was known.
Compounds. The drugs and investigational agents: BAY 2416964 (NSC825713), GNF351 (NSC835774), CH-223191 (NSC835775), CPI-455 (NSC825282), aza-TdCyd (NSC777586), decitabine (NSC127716), belinostat (NSC758774), entinostat (NSC756642), pevonedistat (NSC761192), tazemetostat (NSC777109), talazoparib (NSC765396), olaparib (NSC753686), selinexor (NSC780203), nedisertib (M3814, NSC802822), bortezomib (NSC756655), venetoclax (NSC766270), doxorubicin (NSC123127), elimusertib (BAY189344, NSC800525), ceralasertib (AZD6738, NSC777638), TAK-243 (NSC785004), alisertib (NSC759677), etoposide (NSC141540), topotecan (NSC609699), eribulin (NSC707389), gemcitabine (NSC613327), carboplatin (NSC241240), cisplatin (NSC119875), and SN-38 (NSC673596) were obtained from the National Cancer Institute (NCI) Developmental Therapeutics Program Chemical Repository (32). The FDA-approved anticancer drug set is available from the Developmental Therapeutics Program at https://dtp.cancer.gov/organization/dscb/obtaining/available plates.htm. […] The stock solutions were prepared in dimethyl sulfoxide (DMSO, Sigma-Aldrich, St. Louis, MO, cat. D2650), except for the platinum compounds which were prepared in saline (Quality Biological, Gaithersburg, MD, cat. 114-055-101), at 800-fold the tested concentration and stored at -70 degrees C prior to their use. All drugs and investigational agents were tested over a range starting from a high concentration at or near the clinical Cmax and decreasing in half-log increments. If the clinical Cmax for an agent had not been determined, the highest concentration tested was 10 microM (Table 1).
Cell Culture. All cells were maintained in an incubator at 37 degrees C and 5% CO2 with 95% humidity. The PDC lines were cultured according to standard operating procedures established by the NCI PDMR (https://pdmr.cancer.gov). Briefly, all PDCs were thawed and cultured in Matrigel-coated flasks prepared with a working solution of 1X Ham's F-12 nutrient mix, without supplementation (Invitrogen, Waltham, MA, cat. 11765054), 100 U/mL penicillin-streptomycin (Invitrogen, cat. 15140122), and 2.5% Matrigel (Corning Inc., Corning, NY, cat. 354248) for the first three passages. All PDCs were cultured in complete DMEM/F-12 media containing advanced DMEM/F-12 (Invitrogen, cat. 12634028), 4.9% defined fetal bovine serum, heat inactivated (HyClone Laboratories Inc., Logan, UT, cat. SH30070.03HI), 389 ng/mL hydrocortisone (Sigma-Aldrich, cat. H4001), 9.7 ng/mL human EGF recombinant protein (Invitrogen, cat. PHG0313), 23.4 microg/mL adenine (Sigma-Aldrich, cat. A2786), 97.3 U/mL penicillin-streptomycin (Invitrogen, cat. 15140122), 1.9 mM L-glutamine (Invitrogen, cat. 25030081), and 9.7 microM Y-27632 dihydrochloride (Tocris Bioscience, Bristol, United Kingdom, cat. 1254). The PDCs were cultured in complete DMEM/F12 media without 10 microM Y-27632 dihydrochloride for at least two passages prior to the screen. The established cell lines NCI-H1341 and […] were cultured in DMEM/F-12, HEPES (Invitrogen, cat. 11330032), 5% defined fetal bovine serum (HyClone Laboratories Inc., cat. SH30070.03), ITS premix universal culture supplement [insulin (5 microg/mL), transferrin (5 microg/mL), and selenious acid (5 ng/mL)] […]

For `CC[C@@]1(O)C(=O)OCc2c1cc1n(c2=O)Cc2cc3c(CN(C)C)c(O)ccc3nc2-1` + CC(CO)NC(=O)c1cc(-c2ccc(Cl)cc2)nn(-c2cnn(C)c2)c1=O, the IC50 (second compound 0.1 µM) was > 100 nM, the IC50 (second compound 0.316 µM) was > 100 nM and the IC50 (second compound 1 µM) was > 100 nM. The IC50 (second compound 3.16 µM) was > 100 nM, the IC50 (second compound 10 µM) was 75.7 nM and the viability, T/C (second compound 0.1 µM, first compound 0.000316 µM) was 105%. It also gave a viability, T/C (second compound 0.1 µM, first compound 0.001 µM) of 98.4%, a viability, T/C (second compound 0.1 µM, first compound 0.00316 µM) of 103% and a viability, T/C (second compound 0.1 µM, first compound 0.01 µM) of 94.6%. It also gave a viability, T/C (second compound 0.1 µM, first compound 0.0316 µM) of 86.7%, a viability, T/C (second compound 0.1 µM, first compound 0.1 µM) of 68.2% and a viability, T/C (second compound 0.316 µM, first compound 0.000316 µM) of 93.2%. For the same compound, the viability, T/C (second compound 0.316 µM, first compound 0.001 µM) was 102%, the viability, T/C (second compound 0.316 µM, first compound 0.00316 µM) was 96.4% and the viability, T/C (second compound 0.316 µM, first compound 0.01 µM) was 82.4%. It also gave a viability, T/C (second compound 0.316 µM, first compound 0.0316 µM) of 81.3%, a viability, T/C (second compound 0.316 µM, first compound 0.1 µM) of 64.8% and a viability, T/C (second compound 1 µM, first compound 0.000316 µM) of 95.8%. The viability, T/C (second compound 1 µM, first compound 0.001 µM) was 106%, the viability, T/C (second compound 1 µM, first compound 0.00316 µM) was 100% and the viability, T/C (second compound 1 µM, first compound 0.01 µM) was 92.2%. For the same compound, the viability, T/C (second compound 1 µM, first compound 0.0316 µM) was 76.9%, the viability, T/C (second compound 1 µM, first compound 0.1 µM) was 65.3% and the viability, T/C (second compound 3.16 µM, first compound 0.000316 µM) was 92%. It also gave a viability, T/C (second compound 3.16 µM, first compound 0.001 µM) of 87%, a viability, T/C (second compound 3.16 µM, first compound 0.00316 µM) of 88.6% and a viability, T/C (second compound 3.16 µM, first compound 0.01 µM) of 71.1%. The viability, T/C (second compound 3.16 µM, first compound 0.0316 µM) was 71.2%, the viability, T/C (second compound 3.16 µM, first compound 0.1 µM) was 60.1% and the viability, T/C (second compound 10 µM, first compound 0.000316 µM) was 77%. For the same compound, the viability, T/C (second compound 10 µM, first compound 0.001 µM) was 74.2%, the viability, T/C (second compound 10 µM, first compound 0.00316 µM) was 76.6% and the viability, T/C (second compound 10 µM, first compound 0.01 µM) was 63.1%. For the same compound, the viability, T/C (second compound 10 µM, first compound 0.0316 µM) was 57.1% and the viability, T/C (second compound 10 µM, first compound 0.1 µM) was 47.7%.
